These results are taken from ChEMBL document CHEMBL3091357, “Synthesis and biological evaluation of nimesulide based new class of triazole derivatives as potential PDE4B inhibitors against cancer cells” (Bioorg Med Chem Lett, 2013).

The source made the active and inactive calls. The calls are words filed in the database; no cut-off is given here.

In assay [1] the target is T1, 3',5'-cyclic-AMP phosphodiesterase 4B (Homo sapiens, UniProt Q07343). The assay is described as follows: Inhibition of recombinant His-tagged PDE4B1 (unknown origin) expressed in insect Sf9 cells using cAMP as substrate at 30 uM preincubated for 15 mins followed by substrate addition measured after 1 hr by luminescence assay relative to control.
In assay [2] the test system is HCT-15. The assay is described as follows: Cytotoxicity against human HCT15 cells assessed as cell death at 5 ug/mL after 48 hrs by MTT assay relative to control. The conditions noted are these: HCT-15, 48 h. The assay is classed as functional.
For assay [3], the system named is HCT-15. Description: Cytotoxicity against human HCT15 cells assessed as cell death at 20 ug/mL after 48 hrs by MTT assay relative to control. It counts as functional. The conditions noted are these: HCT-15, 48 h.
Assay [4] has as its system HCT-15. The assay is described as follows: Cytotoxicity against human HCT15 cells assessed as cell death at 10 ug/mL after 48 hrs by MTT assay relative to control. The assay is classed as functional. The conditions noted are these: HCT-15, 48 h.
The test system of assay [5] is HCT-15. Description: Cytotoxicity against human HCT15 cells assessed as cell death at 25 ug/mL after 48 hrs by MTT assay relative to control. The conditions noted are these: HCT-15, 48 h. It counts as functional.
Assay [6] concerns HCT-15. Description: Cytotoxicity against human HCT15 cells assessed as cell death after 48 hrs by MTT assay. It counts as functional, cell-based. The conditions noted are these: HCT-15, 48 h.
For assay [7], the system named is HCT-15. Description: Cytotoxicity against human HCT15 cells assessed as cell death at 15 ug/mL after 48 hrs by MTT assay relative to control. The assay is classed as functional. The conditions noted are these: HCT-15, 48 h.
Assay [8] deals with T1, 3',5'-cyclic-AMP phosphodiesterase 4B. The assay is described as follows: Inhibition of recombinant His-tagged PDE4B1 (unknown origin) expressed in insect Sf9 cells using cAMP as substrate preincubated for 15 mins followed by substrate addition measured after 1 hr by luminescence assay.

T1 sequence (Q07343 whole entry): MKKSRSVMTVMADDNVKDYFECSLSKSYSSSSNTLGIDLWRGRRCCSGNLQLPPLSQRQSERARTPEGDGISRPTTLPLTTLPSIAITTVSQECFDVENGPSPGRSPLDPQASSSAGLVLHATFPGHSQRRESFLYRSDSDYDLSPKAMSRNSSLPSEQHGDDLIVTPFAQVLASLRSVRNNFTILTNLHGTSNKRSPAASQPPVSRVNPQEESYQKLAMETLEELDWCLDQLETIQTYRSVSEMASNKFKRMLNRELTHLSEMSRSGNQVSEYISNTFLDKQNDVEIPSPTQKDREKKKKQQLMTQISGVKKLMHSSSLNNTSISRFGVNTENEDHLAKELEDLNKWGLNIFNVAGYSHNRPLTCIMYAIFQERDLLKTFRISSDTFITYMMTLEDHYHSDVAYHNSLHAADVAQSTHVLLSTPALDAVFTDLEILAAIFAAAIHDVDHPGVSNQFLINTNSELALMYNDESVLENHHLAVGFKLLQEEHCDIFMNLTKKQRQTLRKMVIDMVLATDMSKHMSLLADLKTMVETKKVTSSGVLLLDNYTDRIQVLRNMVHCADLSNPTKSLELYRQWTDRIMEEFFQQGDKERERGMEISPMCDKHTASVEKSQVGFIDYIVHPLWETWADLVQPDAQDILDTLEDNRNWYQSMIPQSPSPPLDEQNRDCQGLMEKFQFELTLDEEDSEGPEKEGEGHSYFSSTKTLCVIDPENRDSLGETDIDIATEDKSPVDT

Consider `Cc1ccc(OCc2cn(CC(=O)Nc3ccc(NS(C)(=O)=O)c(Oc4ccccc4)c3)nn2)cc1`, for which the inhibition in assay [1] was 56.7%.

Regarding `Cc1cc(OCc2cn(CC(=O)Nc3ccc(NS(C)(=O)=O)c(Oc4ccccc4)c3)nn2)ccc1Cl`, the inhibition in assay [1] was found to be 32.9%.

As to `CS(=O)(=O)Nc1ccc(NC(=O)Cn2cc(COc3ccccc3)nn2)cc1Oc1ccccc1`, the inhibition in assay [1] is 51.2%.

Take `Cc1ccc(-c2cn(CC(=O)Nc3ccc(NS(C)(=O)=O)c(Oc4ccccc4)c3)nn2)cc1`: the mortality at 5 µg/mL in assay [2] was 37%. Further, the inhibition in assay [1] was 36%. Further, the mortality at 20 µg/mL in assay [3] was determined as 49.6%. In assay [4], the mortality at 10 µg/mL worked out at 40.2%. Further, the mortality at 25 µg/mL in assay [5] came to 53%. Moreover, the IC50 in assay [6] worked out at 21 µg/mL. The mortality at 15 µg/mL in assay [7] was 45.6%.

`CS(=O)(=O)Nc1ccc(NC(=O)Cn2cc(COc3ccccc3Cl)nn2)cc1Oc1ccccc1`: in assay [1], the inhibition was determined as 42.5%.

`CS(=O)(=O)Nc1ccc([N+](=O)[O-])cc1Oc1ccccc1`: the inhibition result in assay [1] is “inactive”.

`COc1cccc2c1C(=O)c1c(O)c3c(c(O)c1C2=O)C[C@@](O)(C(=O)CO)C[C@@H]3O[C@H]1C[C@H](N)[C@H](O)[C@H](C)O1` [DOXORUBICIN]: the half-maximal inhibitory concentration (IC50) in assay [6] worked out at 0.09 µM.

For `CS(=O)(=O)Nc1ccc(NC(=O)Cn2cc(-c3ccccc3)nn2)cc1Oc1ccccc1`, in assay [2], the mortality at 5 µg/mL came to 10.8%. Also, the inhibition in assay [1] was 64.1%; in assay [8], “Dose-dependent effect”. In addition, in assay [3], the mortality at 20 µg/mL turned out to be 42.7%. Also, the mortality at 10 µg/mL in assay [4] is 15.2%. In addition, the IC50 in assay [8] stood at 4.92 µM; in assay [6] it was 22.4 µg/mL. Further, the mortality at 25 µg/mL in assay [5] is 60.1%. For the same molecule, in assay [7], the mortality at 15 µg/mL amounted to 31%.

In the case of `CS(=O)(=O)Nc1ccc(NC(=O)Cn2cc(COc3ccc4ccccc4c3)nn2)cc1Oc1ccccc1`, the mortality at 5 µg/mL in assay [2] is 10.6%. Besides, the inhibition in assay [1] came out at 59.7%. In addition, the mortality at 20 µg/mL in assay [3] was 25.3%. Further, in assay [4], the mortality at 10 µg/mL is 14.3%. Moreover, the mortality at 25 µg/mL in assay [5] came to 33.6%. In assay [7], the mortality at 15 µg/mL was found to be 21.1%.

Consider `CS(=O)(=O)Nc1ccc(NC(=O)Cn2cc(COc3ccc([N+](=O)[O-])cc3)nn2)cc1Oc1ccccc1`, for which the inhibition in assay [1] worked out at 47.1%.

Take `COc1ccc(C2CNC(=O)C2)cc1OC1CCCC1` (stereo unspecified): in assay [1], the inhibition was 94.1%.

Regarding `CS(=O)(=O)Nc1ccc(NC(=O)Cn2cc(COc3ccc(Cl)cc3)nn2)cc1Oc1ccccc1`, the inhibition in assay [1] is 51.3%.
